Measured values from ChEMBL document CHEMBL3351690, “Design, synthesis and structure--activity relationship (SAR) studies of imidazo[4,5-b]pyridine derived purine isosteres and their potential as cytotoxic agents” (Eur J Med Chem, 2015).
pIC50: −log10 of the molar value.

Columns and labels:
MDA-MB-231 [1] = assay: Cytotoxicity against paclitaxel-resistant human MDA-MB-231 cells after 24 hrs by MTT assay; format: functional, cell-based; conditions: MDA-MB-231, 24 h
[2] = Stability in mouse liver microsomes at 1 uM pre-incubated for 5 mins in presence of NADPH and measured after 45 mins by LC/MS method; format: ADME; conditions: read-out: Stability
[3] = Stability in human liver microsomes at 1 uM pre-incubated for 5 mins in presence of NADPH and measured after 45 mins by LC/MS method; format: ADME; conditions: read-out: Stability
MDA-MB-231 [4] = assay: Inhibition of cell proliferation of paclitaxel-resistant human MDA-MB-231 cells at 10 uM after 24 hrs by MTT assay; format: functional; conditions: MDA-MB-231, 24 h
[5] = Cytotoxicity against human MES-SA/Dx5 cells after 24 hrs by MTT assay; format: functional, cell-based; conditions: MES-SA/Dx5, 24 h
[6] = Cytotoxicity against human MDA435 cells after 24 hrs by MTT assay; format: functional, cell-based; conditions: MDA-MB-435, 24 h
[7] = Cytotoxicity against human MES-SA cells after 24 hrs by MTT assay; format: functional, cell-based
[8] = Cytotoxicity against human HL60 cells after 24 hrs by MTT assay; format: functional, cell-based; conditions: HL-60, 24 h

Structure (SMILES) | pIC50 (MDA-MB-231 [1]) | further results
c1ccc(-c2nc3cccnc3n2C2CCCC2)cc1 | 5.52 | –
c1ccc(-c2nc3ncccc3n2C2CCCC2)cc1 | 5.15 | –
Cn1c(-c2ccccc2)nc2cccnc21 | 5.39 | –
Fc1ccc(-c2nc3cccnc3n2C2CCCC2)cc1 | 6.30 | –
Fc1cc(F)cc(-c2nc3cccnc3n2C2CCCC2)c1 | 6.86 | –
Fc1cc(F)cc(-c2nc3ncccc3n2C2CCCCC2)c1 | 5.42 | –
Cn1c(-c2cc(F)cc(F)c2)nc2ncccc21 | 5.57 | –
FC(F)(F)c1cc(-c2nc3cccnc3n2C2CCCC2)cc(C(F)(F)F)c1 | 6.95 | –
FC(F)(F)Oc1cccc(-c2nc3cccnc3n2C2CCCC2)c1 | 6.58 | –
Fc1cccc(-c2nc3cccnc3n2C2CCCCC2)c1 | 6.47 | –
Cc1ccc(-c2nc3cccnc3n2C2CCCCC2)cc1 | 5.15 | –
CCS(=O)(=O)c1cccc(-c2nc3cccnc3n2C2CCCCC2)c1 | 6.79 | –
Cc1cccc(-c2nc3cccnc3n2C2CCCC2)c1Cl | 6.19 | –
CN(C)c1cccc(-c2nc3cccnc3n2C2CCCC2)c1 | 6.34 | –
N#Cc1ccc(-c2nc3cccnc3n2C2CCCC2)cc1F | 5.70 | –
COc1ccc(-c2nc3cccnc3n2C2CCCCC2)cc1 | 6.95 | –
c1ccc(Oc2ccc(-c3nc4cccnc4n3C3CCCC3)cc2)cc1 | < 5.00 | –
O=C(O)c1ccc(-c2nc3cccnc3n2C2CCCC2)cc1 | 6.22 | remaining at 0.75 h, 1 µM [2]: 80%; remaining at 0.75 h, 1 µM [3]: 80%
COC(=O)c1ccc(-c2nc3cccnc3n2C2CCCC2)cc1 | 6.46 | remaining at 0.75 h, 1 µM [2]: 52%; inhibition at 10 µM (MDA-MB-231 [4]): 25%; remaining at 0.75 h, 1 µM [3]: 52%

Structure (SMILES) | pIC50 (MDA-MB-231 [1]) | further results
O=C(NC1CC1)c1ccc(-c2nc3cccnc3n2C2CCCC2)cc1 | 6.94 | remaining at 0.75 h, 1 µM [2]: 42%; inhibition at 10 µM (MDA-MB-231 [4]): 42%; remaining at 0.75 h, 1 µM [3]: 42%
CCNC(=O)c1ccc(-c2nc3cccnc3n2C2CCCC2)cc1 | 6.49 | –
O=C(NCc1ccccc1)c1ccc(-c2nc3cccnc3n2C2CCCC2)cc1 | 6.21 | –
NC(=O)c1ccc(-c2nc3cccnc3n2C2CCCC2)cc1 | 5.10 | –
CN(C)C(=O)c1ccc(-c2nc3cccnc3n2C2CCCC2)cc1 | 6.28 | –
c1cnc2c(c1)nc(-c1cncnc1)n2C1CCCC1 | < 5.00 | –
Cc1nnc(-c2ccc(-c3nc4cccnc4n3C3CCCC3)cc2)o1 | 7.68 | pIC50 [5]: 7.10; remaining at 0.75 h, 1 µM [2]: 75%; inhibition at 10 µM (MDA-MB-231 [4]): 77.3%; pIC50 [6]: 7.55; pIC50 [7]: 7.60; pIC50 [8]: 7.15; remaining at 0.75 h, 1 µM [3]: 75%
CN(C)c1ncc(-c2nc3cccnc3n2C2CCCC2)cn1 | 7.35 | –
Cc1ccsc1-c1nc2cccnc2n1C1CCCC1 | 6.86 | –
COc1ncc(-c2nc3cccnc3n2C2CCCC2)c(OC)n1 | < 5.00 | –
c1ccc(Cn2nccc2-c2nc3cccnc3n2C2CCCC2)cc1 | 6.46 | –
Cc1cc(-c2nc3cccnc3n2C2CCCC2)cnc1F | 7.15 | –
COc1ccc(-c2nc3cccnc3n2C2CCCC2)cn1 | 6.66 | –
c1cnc2c(c1)nc(-c1ccc3c(c1)OCC3)n2C1CCCC1 | 6.29 | –
Cn1ccc2cc(-c3nc4cccnc4n3C3CCCC3)ccc21 | 7.05 | –
c1cnc2c(c1)nc(-c1ccc(-c3nnn[nH]3)cc1)n2C1CCCC1 | 6.12 | –
c1cncc(-c2ccc(-c3nc4cccnc4n3C3CCCC3)cc2)c1 | < 5.00 | –
c1cnc2c(c1)nc(-c1ccc(-c3nnco3)cc1)n2C1CCCC1 | 7.06 | –
CC(=O)O[C@H]1C(=O)[C@@]2(C)[C@H]([C@H](OC(=O)c3ccccc3)[C@]3(O)C[C@H](OC(=O)[C@H](O)[C@@H](NC(=O)c4ccccc4)c4ccccc4)C(C)=C1C3(C)C)[C@]1(OC(C)=O)CO[C@@H]1C[C@@H]2O [PACLITAXEL] | 6.34 | pIC50 [5]: 5.29; pIC50 [7]: 8.10; pIC50 [8]: 8.15
